Test results reported in US11491162B2, “Combination of quinoline-4-carboxamides and benzonaphthyridine derivatives as antimalarial drug combination” (Merck Patent GmbH, priority 2018, dated 2022).
Structures can show the parent of a compound that is named as a salt.

What was measured:
[1] = test system: P. falciparum Pf3D7^0087/N9; assay: In vivo SCID mouse model, oral therapeutic efficacy; set-up: species or system Plasmodium falciparum; details: for % control: day 7; for Activity: day 7 vs untreated control
Description: Compound efficacy was assessed against the Plasmodium falciparum strain Pf3D7^0087/N9 in vivo. Mice are infected intravenously with parasitized red blood cells on day 0. Experimental mice are generally treated at day 3, 4, 5, and 6 post-infection with an oral dose of the compound (single or 4-day oral dosing regimen) and are compared to an infected control group for reduction in parasitemia on day 7 (Maria Belen Jimenez-Díaz, Teresa Mulet, Sara Viera, Vanessa Gomez, Helen Garuti, Javier Ibanez, Angela Alvarez-Doval, Leonard D. Shultz, Antonio Martínez, Domingo Gargallo-Viola, and Inigo Angulo-Barturen, Improved Murine Model of Malaria Using Plasmodium falciparum Competent Strains and Non-Myelodepleted NOD-scid IL2Rgammanull Mice Engrafted with Human Erythrocytes, Antimicrob Agents Chemother. 2009, 53:4533).
PYRO and M1 were solubilized in a vehicle consisting of 70% Tween-80 and 30% ethanol, followed by a 10-fold dilution in H2O.

P-gp = biological target: T1, P-gp (Homo sapiens, UniProt P08183); assay: Inhibition of Pgp-mediated efflux of M1 in Caco-2 monolayer; assay type: cell-based; details: M1 as substrate
T1 construct: In Caco-2 monolayer cells, M1 is effluxed by P-gp transporters with a ratio of 18.2; endogenous in cells; host or cells: Caco-2 cells, differentiated monolayers on polycarbonate filter inserts

[2] = PYRO 4 × 1 MG/KG oral, SCID mice, Table 2
[3] = PYRO 4 × 3 MG/KG oral, SCID mice, Table 2
[4] = PYRO 4 × 9 MG/KG oral, SCID mice, Table 2
[5] = Table 4 entry 3: M1 0 mg/kg, PYRO 4 × 3 mg/kg, oral
[6] = Table 4 entry 3: M1 0 mg/kg, PYRO 4 × 3 mg/kg, oral, LLQ = <0.01% parasitemia
[7] = Table 4 entry 5: M1 0 mg/kg, PYRO 4 × 9 mg/kg, oral
[8] = Table 4 entry 5: M1 0 mg/kg, PYRO 4 × 9 mg/kg, oral, LLQ = <0.01% parasitemia
[9] = Table 4 entry 7: M1 0 mg/kg, PYRO 4 × 30 mg/kg, oral
[10] = Table 4 entry 7: M1 0 mg/kg, PYRO 4 × 30 mg/kg, oral, LLQ = <0.01% parasitemia

T1 sequence (P08183 whole entry): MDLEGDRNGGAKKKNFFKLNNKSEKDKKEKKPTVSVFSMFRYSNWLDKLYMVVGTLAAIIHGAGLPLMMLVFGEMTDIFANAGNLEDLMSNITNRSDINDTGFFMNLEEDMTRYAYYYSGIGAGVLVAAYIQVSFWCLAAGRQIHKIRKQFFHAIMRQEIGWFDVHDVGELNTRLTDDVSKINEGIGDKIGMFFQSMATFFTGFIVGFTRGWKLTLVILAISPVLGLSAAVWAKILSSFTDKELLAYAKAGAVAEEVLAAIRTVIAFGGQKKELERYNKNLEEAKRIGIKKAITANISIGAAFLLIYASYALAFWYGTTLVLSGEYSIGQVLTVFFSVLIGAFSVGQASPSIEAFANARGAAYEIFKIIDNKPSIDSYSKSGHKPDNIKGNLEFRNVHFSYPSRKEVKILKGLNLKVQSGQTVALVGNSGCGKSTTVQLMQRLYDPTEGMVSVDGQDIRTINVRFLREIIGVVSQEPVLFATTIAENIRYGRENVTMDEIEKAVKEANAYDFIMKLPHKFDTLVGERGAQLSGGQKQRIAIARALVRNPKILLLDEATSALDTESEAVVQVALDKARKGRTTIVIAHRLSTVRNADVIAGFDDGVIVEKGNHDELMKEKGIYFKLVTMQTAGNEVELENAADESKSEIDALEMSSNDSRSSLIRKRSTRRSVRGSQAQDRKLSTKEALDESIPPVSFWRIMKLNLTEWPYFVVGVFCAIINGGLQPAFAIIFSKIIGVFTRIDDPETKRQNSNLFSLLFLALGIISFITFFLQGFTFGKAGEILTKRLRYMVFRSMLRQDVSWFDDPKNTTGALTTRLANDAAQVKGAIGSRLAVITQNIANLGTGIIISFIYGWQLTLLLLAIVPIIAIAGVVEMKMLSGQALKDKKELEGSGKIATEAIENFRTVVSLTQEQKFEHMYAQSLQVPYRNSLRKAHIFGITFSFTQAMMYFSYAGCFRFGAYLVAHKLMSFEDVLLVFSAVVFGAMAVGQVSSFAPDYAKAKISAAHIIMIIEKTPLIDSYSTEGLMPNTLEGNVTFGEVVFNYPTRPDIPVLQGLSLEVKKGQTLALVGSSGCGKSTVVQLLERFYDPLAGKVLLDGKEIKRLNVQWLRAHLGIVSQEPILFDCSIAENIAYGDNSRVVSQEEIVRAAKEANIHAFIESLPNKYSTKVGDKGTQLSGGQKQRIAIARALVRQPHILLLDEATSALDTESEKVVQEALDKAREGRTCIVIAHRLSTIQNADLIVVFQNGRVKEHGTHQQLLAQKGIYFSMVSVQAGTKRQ

COc1ccc2nc3cc(Cl)ccc3c(Nc3cc(CN4CCCC4)c(O)c(CN4CCCC4)c3)c2n1 [PYRO, pyronaridine tetraphosphate salt]
% PARASITEMIA day 3 post infection [1, 2]: 0.63% | % PARASITEMIA day 4 post infection [1, 2]: 1.21% | % PARASITEMIA day 5 post infection [1, 2]: 3.14% | % PARASITEMIA day 6 post infection [1, 2]: 4.53% | % PARASITEMIA day 7 post infection [1, 2]: 7.55% | % control ([1]; PYRO 4 × 1 MG/KG oral, SCID mice): 82.6% | Activity ([1]; PYRO 4 × 1 MG/KG oral, SCID mice, 1 mg/kg): 17.4% | Activity ([1]; PYRO 4 × 1 MG/KG oral, SCID mice, listed as pyronaridine, 1 mg/kg): 17% | % PARASITEMIA day 3 post infection [1, 3]: 0.71% | % PARASITEMIA day 4 post infection [1, 3]: 1% | % PARASITEMIA day 5 post infection [1, 3]: 0.44% | % PARASITEMIA day 6 post infection [1, 3]: 0.25% | % PARASITEMIA day 7 post infection [1, 3]: 0.04% | % control ([1]; PYRO 4 × 3 MG/KG oral, SCID mice): 0.4% | Activity ([1]; PYRO 4 × 3 MG/KG oral, SCID mice, 3 mg/kg): 99.6% | Activity ([1]; PYRO 4 × 3 MG/KG oral, SCID mice, listed as pyronaridine, 3 mg/kg): 99.6% | % PARASITEMIA day 3 post infection [1, 4]: 0.7% | % PARASITEMIA day 4 post infection [1, 4]: 0.28% | % PARASITEMIA day 5 post infection [1, 4]: 0.15% | % PARASITEMIA day 6 post infection [1, 4]: 0.063% | % PARASITEMIA day 7 post infection ([1]; PYRO 4 × 9 MG/KG oral, SCID mice, Table 2, LLQ = <0.01% parasitemia, 9 mg/kg): <LLQ | % PARASITEMIA day 7 post infection ([1]; PYRO 4 × 9 MG/KG oral, SCID mice, Table 2, LLQ = <0.01% parasitemia, listed as pyronaridine, 9 mg/kg): parasite-free | % control ([1]; PYRO 4 × 9 MG/KG oral, SCID mice, LLQ = <0.01% parasitemia): <LLQ | Activity ([1]; PYRO 4 × 9 MG/KG oral, SCID mice, 9 mg/kg): 100% | Activity ([1]; PYRO 4 × 9 MG/KG oral, SCID mice, listed as pyronaridine, 9 mg/kg): > 99.9% | % PARASITEMIA day 3 post infection [1, 5]: 1.16% | % PARASITEMIA day 4 post infection [1, 5]: 0.67% | % PARASITEMIA day 5 post infection [1, 5]: 0.08% | % PARASITEMIA day 6 post infection [1, 5]: 0.01% | % PARASITEMIA day 7 post infection [1, 6]: <LLQ | % PARASITEMIA day 10 post infection [1, 6]: <LLQ | % PARASITEMIA day 3 post infection [1, 7]: 1.09% | % PARASITEMIA day 4 post infection [1, 7]: 0.34% | % PARASITEMIA day 5 post infection [1, 7]: 0.05% | % PARASITEMIA day 6 post infection [1, 8]: <LLQ | % PARASITEMIA day 7 post infection [1, 8]: <LLQ | % PARASITEMIA day 10 post infection [1, 8]: <LLQ | % PARASITEMIA day 3 post infection [1, 9]: 1.13% | % PARASITEMIA day 4 post infection [1, 9]: 0.14% | % PARASITEMIA day 5 post infection [1, 9]: 0.02% | % PARASITEMIA day 6 post infection [1, 9]: 0.01% | % PARASITEMIA day 7 post infection [1, 10]: <LLQ | % PARASITEMIA day 10 post infection [1, 10]: <LLQ | concentrations at which PYRO inhibited Pgp-mediated efflux of M1 (P-gp): greater than 10 μM
